Columns and labels:
FR+ MDA-MB-231 tumors = experiment: FITC-CAR-T toxicity and spleen size in MDA-MB-231 s.c. model (Example 37); assay type: in vivo, mice
Experimental: The evaluation of FITC-CAR-T proliferation and related toxicity in both naïve mice and mice bearing FR+ tumor xenografts was tested. To evaluate whether FITC-CAR-T proliferation in vivo is dependent on the co-existence of the bridge (e.g. EC17) and the tumor antigen (e.g. folate receptor), FITC-CAR-T proliferation in vivo was compared in naïve mice and mice bearing FR+ tumor xenografts, either with or without EC17. 5-8 million CAR-T cells (as indicated in FIGS. 42 and 43) were administered (i.v.) into naïve mice without tumors and mice bearing FR+ tumor xenografts (80-200 mm3). 500 nmol/kg EC17 was dosed 4 hours before and three times per week post CAR-T administration, if desired. Mice were monitored for body weight changes and CAR-T cell count in blood circulation; some mice were also euthanized weekly to evaluate organs. […] CAR-T cell count in blood samples was also compared to evaluate CAR-T proliferation. […] Since the enlargement of spleen size is another indicator for CAR-T proliferation in vivo, spleen size was also measured as shown in FIG. 43B.
For FIG. 42, the MDA-MB-231 s.c. model was used. For FIG. 43A, the HEK-FRa s.c. xenograft model was used. For FIG. 43B, the MDA-MB-231 s.c. model was used.

[1] = system: MDA-MB-231 solid tumor xenografts; experiment: Control of CAR T cell activation in vivo: break, FA competitor or both (Example 19); conditions: 15×10^6 CAR T cells + FITC-Folate 500 nmole/kg every other day
Experimental: Five study groups were designed to test whether anti-FITC CAR T cell activation can be controlled via temporal termination of FITC-ligands, by administering a competitor small molecule, or a combination approach of both discontinuing of FITC-ligands and/or administering an FA competitor. The first group was treated by administering anti-FITC CAR T cell with phosphate-buffered saline (PBS) as a negative control. Every other day over the course of the study, the second, third, fourth and fifth groups were treated with anti-FITC CAR T cell mixed with FITC-Folate (500 nmole/kg). […] Mouse bodyweight was measured regularly to test for toxicity.

MDA-MB-231 cells = experiment: Control of CRS with bridge molecules in vivo (Example 43); set-up: species or system NSG mice
Experimental: Mice were maintained on folic acid-deficient diet (TD.95247, Envigo) in order to reduce the level of folic acid in mice to a physiological levels found in humans. Tumors were measured every other day with calipers, and tumor volume was calculated according to equation: Tumor volume=½(L×W^2) where L is the longest axis of the tumor and W is the axis perpendicular to L. Mouse blood was also collected to measure cytokine levels (e.g. IL-2, IL-6, IFNγ, and TNFα) using LEGENDplex bead-based immunoassay (Biolegend, CA) and systemic toxicity was monitored by measuring body weight loss. All animal care and use followed by National Institutes of Health (NIH) guidelines and all experimental protocols were approved by the Purdue Animal Care and Use Committee.

[2] = system: MDA-MB-231 solid tumor xenografts; experiment: Anti-tumor efficacy and toxicity of CAR T cells with EC17 in vivo (Example 17); set-up: species or system NSG mice
Experimental: Immunodeficient NSG mice (Jackson Laboratory) were used to identify the efficacy of CAR T cell anti-tumor activity in vivo. A folate receptor expressing MDA-MB-231 cancer cell line was subcutaneously injected into the back of NSG mice to establish solid tumor xenografts. When tumor volume of around 100-300 mm^3 was reached, a desired concentration of EC17 (as shown in the figure legends) was introduced 4 hours before the administration of a desired number of CAR T cell (as shown in the figure legends) into the mice bearing tumors. After initial administration of EC17 and CAR T cells, desired concentrations of EC17 (as shown in the figure legends) were also introduced (i.v.) three times per week. Control mice were administered T cells without CAR modification. Other control mice were administrated CAR-Ts, but PBS was dosed instead of EC17. Anti-tumor efficacy was monitored by tumor volume. General toxicity of the therapy was monitored by weight loss, gross animal morphology and behavior.

[3] = system: anti-fluorescein scFv on CAR T cells; experiment: Competitive binding assay against FITC-Alexa647 on CAR T cells; conditions: 1 μM competing ligand versus FITC-Alexa647 10 nM
Experimental: To examine the ability of bridge molecules to bind anti-fluorescein scFv on CAR T cells, a competitive binding assay was developed. Measurement of the fluorescein signal from CAR T cell bound bridges could not be used due to the overlap of its fluorescence with that of the GFP expressing CAR T cells. For this purpose, FITC-Alexa647 (10 nM) was allowed to bind anti-fluorescein CAR T cells in the absence or presence of excess (1 μM) competing ligand (i.e. FITC-folate, FITC-DUPA, FITC-CA9) for 1 h at room temperature. After incubation, anti-fluorescein CAR T cells were washed 3× with PBS to remove unbounded FITC-Alexa647, and the washed cells were analyzed for Alexa647 fluorescence by flow cytometry.
Fluorescein-folate (FITC-folate) and fluorescein-PSMA (FITC-DUPA) were synthesized as previously described. To examine the ability of these bridge molecules to bind anti-fluorescein scFv on CAR T cells, a competitive binding assay had to be developed, because measurement of the fluorescein signal from CAR T cell bound bridge could not be used due to the overlap of its fluorescence with that of the GFP expressing CAR T cells. For this purpose, FITC-Alexa647 (10 nM) was allowed to bind anti-fluorescein CAR T cells in the absence or presence of excess (1 μM) competing ligand (i.e. FITC-folate) for 1 h at room temperature. After incubation, anti-fluorescein CAR T cells were washed 3× with PBS to remove unbounded FITC-Alexa647, and the washed cells were analyzed for Alexa647 fluorescence by flow cytometry. For analysis of FITC-folate to binding to folate receptor, FR positive KB cells were incubated with FITC-folate (100 nM) in the absence or presence of excess (10 μM) free folate (i.e. as a competitive ligand). After washing samples with PBS (3 times), samples were analyzed by flow cytometry for fluorescein-folate binding.

MDA-MB-231 tumors = conditions: mouse, in vivo
Experimental: To evaluate whether mice with FITC-CAR-T therapy related sCRS can be rescued by using competitors which may displace EC17 from either FITC-CAR-T or FR+ tumor cells, 49 NSG mice bearing MDA-MB-231 tumors (150-250 mm3) were administered with excess FITC-CAR-T cells (8 million), 36 of them were then dosed with 500 nmol/kg EC17 48 hours post CAR-T administration, 6 of them were not dosed with EC17 and were used as “No EC17” control, and 7 of them were dosed with 260 umol/kg sodium fluorescein (no EC17 but Fluorescein) to test its toxicity. […] Each group was i.v. injected with 10 umol/kg of Leucovorin, or 10 umol/kg folic acid, or 260 umol/kg sodium fluorescein, or nothing as an un-rescued control. […] Mouse body weight changes were also monitored as the indication of toxicity. […] To evaluate whether the rescue injections affect the anti-tumor activity of FITC-CAR-T cells, these mice were dosed with 500 nmol/kg EC17 twice per week (days 9, 11, 15, 18, 22, 25, etc.) and the tumor size was monitored.

Nc1nc2ncc(CNc3ccc(C(=O)NC(CCC(=O)NCCNC(=S)Nc4ccc(-c5c6ccc(=O)cc-6oc6cc(O)ccc56)c(C(=O)O)c4)C(=O)O)cc3)nc2c(=O)[nH]1 (centres unmarked) [EC17, FITC-Folate]
spleen size (FR+ MDA-MB-231 tumors; 500 nmol/kg three times per week): enlarged spleens | body weight (FR+ MDA-MB-231 tumors; EC17 three times per week): body weight loss in the first 10 days | weight loss (serious CAR T cell mediated toxicity) [1]: > 10% | tumor outcome (MDA-MB-231 cells; 500 nmole/kg, days 4 and 6 omitted): complete tumor eradication | mice requiring euthanasia by day 8 (MDA-MB-231 cells; 15×10^6 CAR T cells, continuous alternate day 500 nmole/kg): three of the mice | body weight (MDA-MB-231 cells; continuous dosing of 500 nmole/kg, 15×10^6 CAR T cells): dramatic and continuous weight loss | therapeutic benefit (MDA-MB-231 cells; continuous dosing schedule): little therapeutic benefit | tumor outcome (MDA-MB-231 cells; continuously treated): rapid increase in tumor growth | time to resolution of transient weight loss (MDA-MB-231 cells; escalation 0.5 to 500 nmole/kg, 15×10^6 CAR T cells): ≤ 4 days | tumor outcome (MDA-MB-231 cells; gradual dose escalation regimen): complete cures | tumor outcome (MDA-MB-231 cells; interrupted dosing): complete remission of their tumors | body weight (MDA-MB-231 cells; interrupted dosing (days 4 and 6 omitted)): only a moderate weight loss from which they rapidly recovered | tumor outcome (MDA-MB-231 cells; one dose per week): complete cures | body weight (MDA-MB-231 cells; single injection per week): no weight loss | body weight (MDA-MB-231 cells; three doses per week, 5×10^6 CAR T cells): significant animal weight loss | body weight loss (MDA-MB-231 cells; tumor-bearing mice, within 4 days, 5×10^6 CAR T cells + 500 nmoles/kg): ~8% | body weight (MDA-MB-231 cells; tumor-free mice): no weight loss was detected | toxicity (MDA-MB-231 cells; two doses per week): less toxicity | effect of changing dosing frequency from TIW to SIW ([2]; 5 million CAR T cells): reduce the toxicity and achieve better anti-tumor potency | anti-tumor outcome ([2]; EC17 20 and 100 nmoles/kg): complete cures | sCRS and body weight loss compared to 500 nmoles/kg cohort ([2]; EC17 20 and 100 nmoles/kg): a lower percentage of sCRS and less body weight loss | body weight loss ([2]; optimized EC17 amount and CAR T numbers, complete cures reached): 2% | sCRS and cures ([2]; over-saturated EC17 doses 1500 and 10000 nmoles/kg): less mice showed sCRS but less mice reached cures | binding to CAR-expressing T cells [3]: able to bind to the CAR-expressing T cells | binding to CAR-expressing T cells ([3]; listed as fluorescein-folate): competitively block FITC-Alexa 647 binding

O=C([O-])c1ccccc1-c1c2ccc(=O)cc-2oc2cc([O-])ccc12.[Na+].[Na+] [sodium fluorescein]
condition of mice (toxicity test) (MDA-MB-231 tumors): healthy

From US11759480B2, “Compositions and methods for CAR T cell therapy” (ENDOCYTE, INC., priority 2017, dated 2023)
